Measured values as given in patent US12145944B2, “Imidazopyrimidines as EED inhibitors and the use thereof” (THE REGENTS OF THE UNIVERSITY OF MICHIGAN, priority 2019, dated 2024).
Read-outs that look alike come from different tables or passages of the source.

Assays:
[1] = tested on: KARPAS422 human B cell lymphoma cell; assay: Cell proliferation, KARPAS422, 7 day treatment (WST-8); assay type: cell-based
Method in brief: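 Read-out was WST-8 absorbance at 450 nm after 1-4 h with reagent, taken after 7-day compound treatment (serial dilutions, 37 °C, 5% CO2) of 2 000-3 000 KARPAS422 cells per well. IC50 fitted by nonlinear regression on DMSO-normalized values.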

EED (1-441)-His protein = biological target: T1, EED (1-441)-His protein (Homo sapiens, UniProt O75530); assay: EED-H3K27Me3 peptide competition binding assay by AlphaScreen
T1 construct: 20 nM EED (1-441)-His protein
T1 sequence (O75530 whole entry): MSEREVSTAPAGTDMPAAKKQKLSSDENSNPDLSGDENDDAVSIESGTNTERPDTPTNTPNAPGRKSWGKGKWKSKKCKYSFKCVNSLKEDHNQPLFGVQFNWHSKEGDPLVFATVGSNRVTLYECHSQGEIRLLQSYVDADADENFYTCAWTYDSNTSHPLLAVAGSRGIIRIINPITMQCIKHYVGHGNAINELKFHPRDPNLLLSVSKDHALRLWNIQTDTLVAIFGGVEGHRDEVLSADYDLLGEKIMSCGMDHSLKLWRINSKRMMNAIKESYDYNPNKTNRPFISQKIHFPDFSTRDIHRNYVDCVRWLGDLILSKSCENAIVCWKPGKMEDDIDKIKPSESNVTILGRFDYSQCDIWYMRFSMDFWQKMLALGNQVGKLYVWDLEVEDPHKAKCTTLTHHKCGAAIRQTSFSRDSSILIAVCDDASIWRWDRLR
Method: “N/A” stands for “not assessed”.
EED-H3K27Me3 peptide competition binding assay by AlphaScreen (α-screen)
2.5 μl of solutions containing 20 nM biotin-H3K27Me3 (19-33) peptide in the buffer (25 mM HEPES, pH 8, 0.02% Tween-20, 0.5% BSA) were added to the wells and then incubated with compound for 30 min. […] Then 10 μl of the detection beads mix was added to the plate and incubated in the dark at RT for 1 h. The final concentration of donor and acceptor beads was 10 μg/ml for each. […] The data were then fit to a dose response equation to get the IC50 values.

Pfeiffer cell line = assay: Anti-proliferative activity, Pfeiffer cell line, 7 day treatment; assay type: cell-based; conditions: Homo sapiens, 168 h
Method in brief: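 Cells seeded at 2 000-3 000 per well were treated with serially diluted compounds for 7 days at 37° C, 5% CO2. Growth was measured by WST-8 assay read at 450 nm after 1-4 h reagent incubation. Readings were normalized to DMSO-treated cells and IC50 values derived by nonlinear regression.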

[2] = anti-proliferative IC50, Karpas 422 cell line, 7 day treatment, read-out: Karpas Cell line
[3] = EED Alpha screen binding assay, read-out: Alpha screen
[4] = anti-proliferative IC50, Pfeiffer cell line, 7 day treatment, read-out: Pfeiffer Cell line
[5] = Homo sapiens, KARPAS-422, 168 h, anti-proliferative IC50, Karpas 422 cell line, 7 day treatment, read-out: Karpas Cell line
[6] = Pfeiffer, read-out: Pfeiffer Cell line (nM)
[7] = Homo sapiens, KARPAS-422, 168 h, read-out: Karpas Cell line (nM)

Row | Molecule | IC50 (EED (1-441)-His protein; [3]) | IC50 (Pfeiffer cell line; [4]) | IC50 [1, 5] | further results
1 | 4-(2,2-difluoroethyl)-7-fluoro-12-(((5-fluoro-2,3- dihydrobenzofuran-4-yl)methyl)amino)-4,5-dihydro- 3H-2,4,11,12a-tetraazabenzo[4,5]cycloocta[1,2,3- cd]inden-3-one [compound 80] | 1.61 nM | – | – | IC50 [1, 2]: 2.42 nM
2 | 4-(2,2-difluoropropyl)-7-fluoro-12-(((5-fluoro-2,3- dihydrobenzofuran-4-yl)methyl)amino)-4,5-dihydro- 3H-2,4,11,12a-tetraazabenzo[4,5]cycloocta[1,2,3- cd]inden-3-one [compound 76] | 0.97 nM | – | – | IC50 [1, 2]: 14.5 nM
3 | 7-fluoro-12-(((5-fluoro-2,3-dihydrobenzofuran-4- yl)methyl)amino)-4-(1-methylpiperidin-4-yl)-4,5- dihydro-3H-2,4,11,12a- tetraazabenzo[4,5]cycloocta[1,2,3-cd]inden-3-one [compound 75] | 1.72 nM | – | – | IC50 [1, 2]: 11.1 nM
4 | 7-fluoro-12-(((5-fluoro-2,3-dihydrobenzofuran-4- yl)methyl)amino)-4-(2-fluoro-2-methylpropyl)-4,5- dihydro-3H-2,4,11,12a- tetraazabenzo[4,5]cycloocta[1,2,3-cd]inden-3-one [compound 78] | 3.23 nM | – | – | IC50 [1, 2]: 34.5 nM
5 | 7-fluoro-12-(((5-fluoro-2,3-dihydrobenzofuran-4- yl)methyl)amino)-4-(2-fluoroethyl)-4,5-dihydro-3H- 2,4,11,12a-tetraazabenzo[4,5]cycloocta[1,2,3- cd]inden-3-one [compound 79] | 1.61 nM | – | – | IC50 [1, 2]: 15.3 nM
6 | CC(F)(F)CN1Cc2cc(C(F)(F)F)ncc2-c2cnc(NCc3c(F)ccc4c3CCO4)n3cnc(c23)C1=O [compound 82, 4-(2,2-difluoropropyl)-12-(((5-fluoro-2,3-dihydrobenzofuran-4-yl)methyl)amino)-7-(trifluoromethyl)-4,5-dihydro-3H-2,4,8,11,12a-pentaazabenzo[4,5]cycloocta[1,2,3-cd]inden-3-one] | – | 0.074 nM | 3.51 nM | –
7 | O=C1c2ncn3c(NCc4c(F)ccc5c4CCO5)ncc(c23)-c2ccc(C(F)(F)F)cc2CN1CC(F)(F)F [compound 83, 12-(((5-fluoro-2,3-dihydrobenzofuran-4-yl)methyl)amino)-4-(2,2,2-trifluoroethyl)-7-(trifluoromethyl)-4,5-dihydro-3H-2,4,11,12a-tetraazabenzo[4,5]cycloocta[1,2,3-cd]inden-3-one] | – | 0.304 nM | 6.32 nM | –
8 | O=C1c2ncn3c(NCc4c(F)ccc5c4CCO5)ncc(c23)-c2cnc(C(F)(F)F)cc2CN1CC(F)(F)F [compound 84, 12-(((5-fluoro-2,3-dihydrobenzofuran-4-yl)methyl)amino)-4-(2,2,2-trifluoroethyl)-7-(trifluoromethyl)-4,5-dihydro-3H-2,4,8,11,12a-pentaazabenzo[4,5]cycloocta[1,2,3-cd]inden-3-one] | – | 0.048 nM | 1.48 nM | –
9 | O=C1c2ncn3c(NCc4c(F)ccc5c4CCO5)ncc(c23)-c2cnc(C(F)(F)F)cc2CN1C1CC(F)(F)C1 [compound 85, 4-(3,3-difluorocyclobutyl)-12-(((5-fluoro-2,3-dihydrobenzofuran-4-yl)methyl)amino)-7-(trifluoromethyl)-4,5-dihydro-3H-2,4,8,11,12a-pentaazabenzo[4,5]cycloocta[1,2,3-cd]inden-3-one] | – | 0.13 nM | 2.71 nM | –
10 | Cc1nc2c(s1)-c1cnc(NCc3c(F)ccc4c3CCO4)n3cnc(c13)C(=O)N(C1CC1)C2 [compound 86, 4-cyclopropyl-11-(((5-fluoro-2,3-dihydrobenzofuran-4-yl)methyl)amino)-7-methyl-4,5-dihydro-3H-8-thia-2,4,6,10,11a-pentaazacyclopenta[4,5]cycloocta[1,2,3-cd]inden-3-one] | – | 0.021 nM | 2.29 nM | –
11 | O=C1c2ncn3c(NCc4c(F)ccc5c4CCO5)ncc(c23)-c2ccsc2CN1C1CC1 [compound 88, 4-cyclopropyl-11-(((5-fluoro-2,3-dihydrobenzofuran-4-yl)methyl)amino)-4,5-dihydro-3H-6-thia-2,4,10,11a-tetraazacyclopenta[4,5]cycloocta[1,2,3-cd]inden-3-one] | – | 0.035 nM | 25.7 nM | –
12 | CCN1Cc2cc(C(F)(F)F)ncc2-c2cnc(NCc3c(F)ccc4c3CCO4)n3cnc(c23)C1=O [compound 90, 4-ethyl-12-(((5-fluoro-2,3-dihydrobenzofuran-4-yl)methyl)amino)-7-(trifluoromethyl)-4,5-dihydro-3H-2,4,8,11,12a-pentaazabenzo[4,5]cycloocta[1,2,3-cd]inden-3-one] | – | 0.044 nM | 0.078 nM | –
13 | O=C1c2ncn3c(NCc4c(F)ccc5c4CCO5)ncc(c23)-c2sc(C(F)(F)F)nc2CN1C1CC1 [compound 91, 4-cyclopropyl-11-(((5-fluoro-2,3-dihydrobenzofuran-4-yl)methyl)amino)-7-(trifluoromethyl)-4,5-dihydro-3H-8-thia-2,4,6,10,11a-pentaazacyclopenta[4,5]cycloocta[1,2,3-cd]inden-3-one] | – | 0.043 nM | 5.23 nM | –
14 | CC1CC(N2Cc3cc(C(F)(F)F)ccc3-c3cnc(NCc4c(F)ccc5c4CCO5)n4cnc(c34)C2=O)CC(C)O1 (stereo not shown) [compound 93, 4-(2,6-dimethyltetrahydro-2H-pyran-4-yl)-12-(((5-fluoro-2,3-dihydrobenzofuran-4-yl)methyl)amino)-7-(trifluoromethyl)-4,5-dihydro-3H-2,4,11,12a-tetraazabenzo [4,5]cycloocta[1,2,3-cd]inden-3-one] | – | 0.55 nM | 3.71 nM | –
15 | O=S1(=O)Cc2ncccc2-c2cnc(NCc3c(F)ccc4c3CCO4)n3cnc1c23 [compound 94, 11-(((5-fluoro-2,3-dihydrobenzofuran-4-yl)methyl)amino)-4H-3-thia-2,5,10,11a-tetraazadibenzo[cd,f]azulene 3,3-dioxide] | – | 0.2 nM | 13.9 nM | –
16 | O=S1(=O)CCc2cc(F)ccc2-c2cnc(NCc3c(F)ccc4c3CCO4)n3cnc1c23 [compound 96, 7-fluoro-12-(((5-fluoro-2,3-dihydrobenzofuran-4-yl)methyl)amino)-4,5-dihydro-3-thia-2,11,12a-triazabenzo[4,5]cycloocta[1,2,3-cd]indene 3,3-dioxide] | – | 0.056 nM | 21.2 nM | –
17 | Cc1ccc2c(n1)CCS(=O)(=O)c1ncn3c(NCc4c(F)ccc5c4CCO5)ncc-2c13 [compound 97, 12-(((5-fluoro-2,3-dihydrobenzofuran-4-yl)methyl)amino)-7-methyl-4,5-dihydro-3-thia-2,6,11,12a-tetraazabenzo[4,5]cycloocta[1,2,3-cd]indene 3,3-dioxide] | – | 0.058 nM | 1.85 nM | –
18 | CS(=O)(=O)c1ccc(-c2cnc(NCc3c(F)ccc4c3CCO4)n3cnc(S(C)(=O)=O)c23)cc1 [compound 100, N-((5-fluoro-2,3-dihydrobenzofuran-4-yl)methyl)-1-(methylsulfonyl)-8-(4 (methylsulfonyl)phenyl)imidazo[1,5-c]pyrimidin-5-amine] | – | – | – | IC50 (Pfeiffer cell line; [6]): 1.05 nM; IC50 [1, 7]: 0.26 nM
19 | Cc1ncccc1-c1cnc(NCc2c(F)ccc3c2CCO3)n2cnc(S(C)(=O)=O)c12 [compound 101, N-((5-fluoro-2,3-dihydrobenzofuran-4-yl)methyl)-8-(2-methylpyridin-3-yl)-1-(methylsulfonyl)imidazo[1,5-c]pyrimidin-5-amine] | – | – | – | IC50 (Pfeiffer cell line; [6]): 1.76 nM; IC50 [1, 7]: 5.59 nM
20 | CS(=O)(=O)c1ncn2c(NCc3c(F)ccc4c3CCO4)ncc(-c3ccc(F)cc3)c12 [compound 104, N-((5-fluoro-2,3-dihydrobenzofuran-4-yl)methyl)-8-(4-fluorophenyl)-1 (methylsulfonyl)imidazo[1,5-c]pyrimidin-5-amine] | 0.59 nM | – | – | IC50 [1, 7]: 8.1 nM
21 | Cn1cc(-c2cnc(NCc3c(F)ccc4c3CCO4)n3cnc(S(C)(=O)=O)c23)cn1 [compound 106, N-((5-fluoro-2,3-dihydrobenzofuran-4-yl)methyl)-8-(1-methyl-1H-pyrazol-4-yl)-1-(methylsulfonyl)imidazo[1,5-c]pyrimidin-5-amine] | 0.556 nM | – | – | IC50 [1, 7]: 10.6 nM
22 | CS(=O)(=O)c1ncn2c(NCc3c(F)ccc4c3CCO4)ncc(-c3ccc(C(F)F)nc3)c12 [compound 107, 8-(6-(difluoromethyl)pyridin-3-yl)-N-((5-fluoro-2,3-dihydrobenzofuran-4-yl)methyl)-1-(methylsulfonyl)imidazo[1,5-c]pyrimidin-5-amine] | – | – | – | IC50 [1, 7]: 2.84 nM; IC50 (EED (1-441)-His protein): 0.215 nM
23 | Cc1ccc(-c2cnc(NCc3c(F)ccc4c3CCO4)n3cnc(S(C)(=O)=O)c23)c(C)n1 [compound 108, 8-(2,6-dimethylpyridin-3-yl)-N-((5-fluoro-2,3-dihydrobenzofuran-4-yl)methyl)-1-(methylsulfonyl)imidazo[1,5-c]pyrimidin-5-amine] | 0.421 nM | – | – | IC50 [1, 7]: 6.89 nM
